Test results: BigSolDB 2.1

COc1c2occc2c(OC)c2c(=O)cc(C)oc12
solubility (mole fraction)
Details | in DMSO | in ethanol | in isopropanol | in methanol | in n-butanol | in water
298.15 K | 0.0128 | 0.00255 | 0.00195 | 0.00271 | 0.00355 | 1.33e-05
303.15 K | 0.0131 | 0.00282 | 0.002 | 0.00272 | 0.00375 | 1.23e-05
308.15 K | 0.0131 | 0.00298 | 0.00209 | 0.003 | 0.00372 | 1.88e-05
313.15 K | 0.0132 | 0.00311 | 0.00228 | 0.00314 | 0.00399 | 1.88e-05
318.15 K | 0.0141 | 0.00338 | 0.00233 | 0.00318 | 0.00435 | 3.69e-05
323.15 K | 0.0152 | 0.00338 | 0.00253 | 0.00332 | 0.00529 | 9.02e-05

Details | solubility (mole fraction)
in PEG-200, 298.15 K | 0.00171
in PEG-200, 303.15 K | 0.00149
in PEG-200, 308.15 K | 0.00173
in PEG-200, 313.15 K | 0.00199
in PEG-200, 318.15 K | 0.00202
in PEG-200, 323.15 K | 0.00231
in PEG-400, 298.15 K | 0.00438
in PEG-400, 303.15 K | 0.00425
in PEG-400, 308.15 K | 0.00448
in PEG-400, 313.15 K | 0.00453
in PEG-400, 318.15 K | 0.00448
in PEG-400, 323.15 K | 0.00511
